Where a SMILES comes first, the peptide text is derived from it. [ ]: non-standard residue; d: D form. pT = C[C@@H](OP(=O)(O)O)[C@H](N)C(=O)O
T1: ΔImpα3 (importin α3 without the IBB domain, residues 64-521) (Homo sapiens, UniProt O00629)
T1 construct: The His-tagged ΔImpα3 (residues 64-521) was obtained from BL21 (DE3) cells as described; His-tag; made in house; host or cells: Escherichia coli BL21 (DE3)
T1 sequence (O00629 64-521): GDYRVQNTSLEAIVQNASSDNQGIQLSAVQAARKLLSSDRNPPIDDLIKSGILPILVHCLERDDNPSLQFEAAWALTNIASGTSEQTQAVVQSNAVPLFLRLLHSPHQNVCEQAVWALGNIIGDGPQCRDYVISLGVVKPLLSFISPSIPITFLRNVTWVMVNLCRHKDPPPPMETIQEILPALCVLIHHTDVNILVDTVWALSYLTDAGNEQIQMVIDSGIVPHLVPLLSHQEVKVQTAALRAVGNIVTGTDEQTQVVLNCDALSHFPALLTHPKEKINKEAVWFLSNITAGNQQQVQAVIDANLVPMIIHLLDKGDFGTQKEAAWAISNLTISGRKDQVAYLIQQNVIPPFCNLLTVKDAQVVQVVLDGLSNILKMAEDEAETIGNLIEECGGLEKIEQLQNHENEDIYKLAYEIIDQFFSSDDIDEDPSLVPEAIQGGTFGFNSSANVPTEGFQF

T2: human importin α3 (Impα3) (Homo sapiens, UniProt O00629)
T2 construct: although the IBB region maintains its independence within the whole Impα3 in terms of conformation; His-tag (N); made in house; host or cells: Escherichia coli BL21 (DE3)
T2 sequence (O00629 1-521): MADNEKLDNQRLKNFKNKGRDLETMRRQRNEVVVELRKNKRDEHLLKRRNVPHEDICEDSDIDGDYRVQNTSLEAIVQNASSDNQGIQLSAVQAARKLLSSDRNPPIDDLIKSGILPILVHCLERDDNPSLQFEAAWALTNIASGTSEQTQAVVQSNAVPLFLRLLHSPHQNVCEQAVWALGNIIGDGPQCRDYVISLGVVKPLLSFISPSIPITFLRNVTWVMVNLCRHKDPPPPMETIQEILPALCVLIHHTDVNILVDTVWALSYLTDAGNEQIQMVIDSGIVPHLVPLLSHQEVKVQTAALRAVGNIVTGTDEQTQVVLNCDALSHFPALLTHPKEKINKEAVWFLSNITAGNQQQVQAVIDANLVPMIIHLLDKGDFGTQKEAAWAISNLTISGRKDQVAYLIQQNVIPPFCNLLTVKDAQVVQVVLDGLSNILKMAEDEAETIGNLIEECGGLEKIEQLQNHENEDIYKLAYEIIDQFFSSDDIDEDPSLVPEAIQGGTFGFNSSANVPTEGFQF

T3: truncated importin α3 without the IBB domain (residues 64-521) (human, UniProt O00629 64-521)
T3 construct: human importin α3 (KPNA4) without the IBB domain, residues 64-521; also called ΔImpα3; ΔImportin
T3 sequence (looked up): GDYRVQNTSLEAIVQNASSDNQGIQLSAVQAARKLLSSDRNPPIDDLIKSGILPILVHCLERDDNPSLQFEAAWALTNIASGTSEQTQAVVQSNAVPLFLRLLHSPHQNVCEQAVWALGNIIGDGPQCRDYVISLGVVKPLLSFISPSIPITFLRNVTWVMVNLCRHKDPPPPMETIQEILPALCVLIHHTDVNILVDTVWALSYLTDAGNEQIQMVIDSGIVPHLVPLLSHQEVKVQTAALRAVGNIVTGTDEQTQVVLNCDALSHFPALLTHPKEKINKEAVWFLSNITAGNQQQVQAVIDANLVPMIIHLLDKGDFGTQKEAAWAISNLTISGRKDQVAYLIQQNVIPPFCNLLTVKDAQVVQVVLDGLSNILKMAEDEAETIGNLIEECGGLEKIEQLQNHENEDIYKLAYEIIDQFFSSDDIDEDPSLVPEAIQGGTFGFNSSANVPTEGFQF

T4: human importin α3 (intact, with the IBB domain) (human, UniProt O00629 1-521)
T4 construct: human importin α3 (KPNA4), intact protein with the IBB domain; codon-optimized synthetic DNA in the vector pHTP1; also called Impα3; KPNA4; source: E. coli BL21 (DE3), purified (as for ΔImpα3)
T4 sequence (looked up): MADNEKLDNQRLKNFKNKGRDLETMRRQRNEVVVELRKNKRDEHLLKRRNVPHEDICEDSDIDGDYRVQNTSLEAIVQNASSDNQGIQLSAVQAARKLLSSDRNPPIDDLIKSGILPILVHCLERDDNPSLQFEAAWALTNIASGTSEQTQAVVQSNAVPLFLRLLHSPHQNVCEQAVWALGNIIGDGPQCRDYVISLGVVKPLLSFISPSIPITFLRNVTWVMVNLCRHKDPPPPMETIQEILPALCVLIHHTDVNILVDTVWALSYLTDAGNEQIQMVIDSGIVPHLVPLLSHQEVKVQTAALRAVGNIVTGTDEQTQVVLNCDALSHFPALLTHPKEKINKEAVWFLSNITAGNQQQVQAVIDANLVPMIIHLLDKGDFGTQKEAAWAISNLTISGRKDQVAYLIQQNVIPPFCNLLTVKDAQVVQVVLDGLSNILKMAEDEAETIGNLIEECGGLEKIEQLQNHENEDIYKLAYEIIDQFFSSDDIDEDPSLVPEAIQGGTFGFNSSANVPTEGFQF


Experiments:
[1] = Translational diffusion by NMR DOSY (hydrodynamic properties); assay type: physicochemical; settings: for D, translational diffusion coefficient: 283 K, pH 7.2, 50-mM deuterated Tris, 100% D2O, peptide 120 μM; for Rh, hydrodynamic radius from D: from the translational diffusion coefficient of dioxane (Rh = 2.12 Å) added to each sample
Procedure: Concentrations of peptides in all DOSY experiments were 120 μM, and 128 scans, where the gradient strength was varied, were acquired for each curve. Translational self-diffusion measurements were performed with the pulsed gradient spin-echo sequence in the presence of 100% D2O. Experimental details have been described elsewhere. Briefly, the gradient strength was varied in sixteen linear steps between 2% and 95% of the total power of the gradient coil. The gradient strength was previously calibrated by using the value of the translational diffusion coefficient, D, for the residual proton water line in a sample containing 100% D2O in a 5-mm tube [34]. In our experiments for each peptide, the duration of the gradient was 2.25 ms, the time between the two pulse gradients in the pulse sequence was set to 200 ms, and the recovery delay between the bipolar gradients was set to 100 μs. The methyl groups with signals between 1.0 and 0.80 ppm were used for integration. Fitting of the exponential curves obtained from experimental data was carried out with KaleidaGraph (Synergy Software, Version 3.5), as described. A final concentration of 1% of dioxane, which was assumed to have a hydrodynamic radius Rh = 2.12 Å [34], was added to the solutions of each of the peptides to have a comparison for estimating their sizes.

[2] = target: T1, ΔImpα3 (importin α3 without the IBB domain, residues 64-521); assay: ITC binding of NLS-NUPR1 peptides / NUPR1 to ΔImpα3; settings: ITC, 298 K; for ΔH (binding enthalpy), ΔImpα3 / −TΔS (entropic contribution), ΔImpα3: Tris 50 mM pH 8; for ΔH (binding enthalpy), ΔImpα3: absolute error 0.5 kcal/mol; for −TΔS (entropic contribution), ΔImpα3: calculated from Kd and ΔH, absolute error 0.7 kcal/mol
Procedure: (§1) The experimental set-up and data processing of ITC experiments has been described previously. Calorimetric titrations, performed in an Auto-iTC200 calorimeter (MicroCal, Malvern-Panalytical, Malvern, UK) consisted of series of 19 2-μL injections, with 150 s time spacing and a 750-rpm stirring speed. Impα3 or ΔImpα3 (at 10–20 μM) was loaded into the calorimetric cell and NLS-NUPR1 peptides in the syringe (150–300 μM); all solutions were prepared in buffer Tris 50 mM, pH 8. […] The binding affinity (association constant) and the binding enthalpy were estimated through a least-squares nonlinear regression data analysis, from which the Gibbs energy and the entropic contribution to the binding were calculated using well-known thermodynamic relationships. Since the binding stoichiometry is constrained by the model, the parameter n provides a fraction of the active or binding competent protein. Experiments for each peptide and importin species were performed, at least, in duplicates.

[3] = target: T2, human importin α3 (Impα3); assay: ITC binding of NLS-NUPR1 peptides / NUPR1 to Impα3; settings: for ΔH (binding enthalpy), Impα3: absolute error 0.5 kcal/mol
Procedure: as §1

[4] = target: T3, truncated importin α3 without the IBB …; assay: ITC; Impα3 or ΔImpα3 (10–20 μM) in the cell, NLS-NUPR1 peptide (150–300 μM) in the syringe; Tris 50 mM, pH 8; 298 K; single ligand binding site (1:1) model, n gives the fraction of binding-competent protein; settings: both partners purified
[5] = target: T4, human importin α3 (intact, with the IBB …); assay: as above; settings: both partners purified

| Kd [4] [µM] | dH [4] [kcal/mol] | Kd [5] [µM] | dH [5] [kcal/mol] | stoichiometry N [4] | stoichiometry N [5] | Molecule | D, translational diffusion coefficient [1] [cm^2 s^−1 × 10^6] | Rh, hydrodynamic radius from D [1] [Å] | ΔH (binding enthalpy), ΔImpα3 [2] [kcal/mol] | −TΔS (entropic contribution), ΔImpα3 [2] [kcal/mol] | ΔH (binding enthalpy), Impα3 ([3]; ITC, 298 K, Tris 50 mM pH 8) [kcal/mol] | Kd ([3]; ITC, 298 K, Tris 50 mM pH 8, importin 10–20 μM in cell, peptide 150–300 μM in syringe, 1:1 model, at least duplicates, relative error 30%, read-out: Kd (dissociation constant), Impα3) [µM] | n (stoichiometry; fraction of binding-competent protein), ΔImpα3 ([2]; absolute error 0.2, value in parenthesis = fixed in the fit due to low affinity) | −TΔS (entropic contribution), Impα3 ([3]; ITC, 298 K, Tris 50 mM pH 8, calculated from Kd and ΔH, absolute error 0.7 kcal/mol) [kcal/mol] | n (stoichiometry; fraction of binding-competent protein), Impα3 ([3]; ITC, 298 K, absolute error 0.2, value in parenthesis = fixed in the fit due to low affinity) | Decrease of the affinity for Impα3 relative to wt peptide ([3]; from ITC Kd values) |
| --- | --- | --- | --- | --- | --- | --- | --- | --- | --- | --- | --- | --- | --- | --- | --- | --- |
| – | – | – | – | – | – | CC(=O)N[C@@H](Cc1ccc(O)cc1)C(=O)N[C@H](C(=O)N[C@@H](CC(N)=O)C(=O)N[C@@H](CCCNC(=N)N)C(=O)N1CCC[C@H]1C(=O)N[C@@H](CO)C(=O)N1CCC[C@H]1C(=O)NCC(=O)NCC(=O)N[C@@H](Cc1c[nH]cn1)C(=O)N[C@@H](CCC(=O)O)C(=O)N[C@@H](CCCNC(=N)N)C(=O)N[C@@H](CCCCN)C(=O)N[C@@H](CC(C)C)C(=O)N[C@H](C(=O)N[C@H](C(=O)N[C@@H](CCCCN)C(=O)N[C@@H](CC(C)C)C(=O)N[C@@H](CCC(N)=O)C(=O)N[C@@H](CC(N)=O)C(=O)N[C@@H](CO)C(=O)N[C@@H](CCC(=O)O)C(N)=O)[C@@H](C)OP(=O)(O)O)C(C)C)[C@@H](C)O [pT68] (Ac-YTNRPSPGGHERKLV[pT]KLQNSE-NH2) | 1.89 ± 0.08 | 11 ± 1 | -28.2 | 22.0 | -14.8 | 27 | – | – | – | – |
| – | – | – | – | – | – | CC(=O)N[C@@H](Cc1ccc(O)cc1)C(=O)N[C@H](C(=O)N[C@@H](CC(N)=O)C(=O)N[C@@H](CCCNC(=N)N)C(=O)N1CCC[C@H]1C(=O)N[C@@H](CO)C(=O)N1CCC[C@H]1C(=O)NCC(=O)NCC(=O)N[C@@H](Cc1c[nH]cn1)C(=O)N[C@@H](CCC(=O)O)C(=O)N[C@@H](CCCNC(=N)N)C(=O)N[C@@H](C)C(=O)N[C@@H](CC(C)C)C(=O)N[C@H](C(=O)N[C@H](C(=O)N[C@@H](CCCCN)C(=O)N[C@@H](CC(C)C)C(=O)N[C@@H](CCC(N)=O)C(=O)N[C@@H](CC(N)=O)C(=O)N[C@@H](CO)C(=O)N[C@@H](CCC(=O)O)C(N)=O)[C@@H](C)O)C(C)C)[C@@H](C)O [K65A] (Ac-YTNRPSPGGHERALVTKLQNSE-NH2) | 1.94 ± 0.08 | 11 ± 1 | -10.2 | 2.6 | -2.8 | – | 1.4 | -4.6 | 1.4 | two-fold |
| 29 | -28.2 | 27 | -14.8 | – | – | Ac-YTNRPSPGGHERKLV[pT]KLQNSE-NH2 (SMILES CC(=O)N[C@@H](Cc1ccc(O)cc1)C(=O)N[C@H](C(=O)N[C@@H](CC(N)=O)C(=O)N[C@@H](CCCNC(=N)N)C(=O)N1CCC[C@H]1C(=O)N[C@@H](CO)C(=O)N1CCC[C@H]1C(=O)NCC(=O)NCC(=O)N[C@@H](Cc1c[nH]cn1)C(=O)N[C@@H](CCC(=O)O)C(=O)N[C@@H](CCCNC(=N)N)C(=O)N[C@@H](CCCCN)C(=O)N[C@@H](CC(C)C)C(=O)N[C@H](C(=O)N[C@H](C(=O)N[C@@H](CCCCN)C(=O)N[C@@H](CC(C)C)C(=O)N[C@@H](CCC(N)=O)C(=O)N[C@@H](CC(N)=O)C(=O)N[C@@H](CO)C(=O)N[C@@H](CCC(=O)O)C(N)=O)[C@@H](C)OP(=O)(O)O)C(C)C)[C@@H](C)O, tyrosine introduced at the N terminus for absorbance measurements; not a residue of NUPR1; Thr68 is printed as pT (phospho-threonine); also called pT68; pT68 peptide; source: synthetic peptide (NZYtech, purity 95%)) [NLS-NUPR1 peptide phosphorylated at Thr68] | – | – | – | – | – | – | – | – | – | – |
| 0.95 | -3.7 | 1.7 | 0.8 | 1 | 0.9 | Ac-YTNRPSPGGHERKLVTKLQNSE-NH2 (tyrosine introduced at the N terminus for absorbance measurements; not a residue of NUPR1; The added Tyr stands where NUPR1 has residue 53; also called wt; wt peptide; source: synthetic peptide (NZYtech, purity 95%)) [wild-type NLS-NUPR1 peptide (residues 54-74 of NUPR1 with an added N-terminal Tyr)] | – | – | – | – | – | – | – | – | – | – |
| 14 | -17.9 | 21 | -7.8 | – | – | Ac-YTNRPSPGGHERALVEKLQNSE-NH2 (tyrosine introduced at the N terminus for absorbance measurements; not a residue of NUPR1; also called K65AT68E peptide; source: synthetic peptide (NZYtech, purity 95%)) [NLS-NUPR1 peptide K65AT68E] | – | – | – | – | – | – | – | – | – | – |

Reference: paper PMC7565984, “A Phosphorylation-Induced Switch in the Nuclear Localization Sequence of the Intrinsically Disordered NUPR1 Hampers Binding to Importin” (Biomolecules, 2020)
